Tests used:
Assay type in all cases: cell-based, human
MU89 melanoma cell line = test: Antibody staining and flow cytometry (intracellular Melan-A/MART-1, gp100, TRP-2; surface MHC Class I/II)
Method: (§1) Cells were fixed with 1% formaldehyde, permeabilized with 0.1% saponin, stained with monoclonal antibodies to melanocyte antigens. Antibodies were obtained with specificity for: MART-1 from Vector Labs (Burlingame, Calif.); gp100 HMB45 from DakoCytomation (Carpinteria, Calif.) and then visualized with goat anti-mouse FITC-conjugated secondary antibody from Invitrogen (Fredrick, Md.). The level of EGFP was determined by flow cytometry of unfixed cells that were washed and resuspended in 1×PBS.
(§2) Cells were plated at a density of 1×10^5 in 1 ml of medium in a 24-well plate and cultured for varying times as indicated in results. […] After incubation, cells were collected by trypsinization and then evaluated by flow cytometry.
(§3) Intracellular staining and flow cytometric analyses of cytoplasmic Melan-A/MART-1, and gp100 expression were performed as described previously. Cells were fixed with 1% formaldehyde, permeabilized with 0.1% saponin, stained with monoclonal antibodies to melanocyte antigens. Antibodies were obtained with specificity for: Melan-A/MART-1 from Vector Labs (Burlingame, Calif.); gp100/HMB45 from DakoCytomation (Carpinteria, Calif.) and then visualized with goat anti-mouse FITC-conjugated secondary antibody from Invitrogen (Frederick, Md.). The level of EGFP was determined by flow cytometry of unfixed cells washed and resuspended in 1×PBS. Surface staining of MHC Class I was carried out using the antibody W6/32 on cells harvested with Cell Stripper from MediaTech Inc. (Manassas, Va.) and carried out on ice.
(§4) Cell were seeded at 1×10^6 cells in a T25 flask with 10 ml of media for the 4 day IFN-beta pre-treatments. Cells were then harvested and plated in 24 well plate at 1×10^5 cells per well in 1 ml of media for 3 day treatments.
(§5) For surface staining of HLA Class I and II antigens, cells were harvested using CellStripper™ from Mediatech (Manassas, Va.). All staining steps were performed on ice. Following a first incubation with antibody to Class I (W6/32) or Class II (L243) for 30 minutes. Stained cells were washed twice with cold PBS and then stained with a goat anti-mouse FITC secondary antibody to allow for quantitative analysis by flow cytometry. For evaluation of cytoplasmic antigens, including Melan-A/MART-1 and gp100, cells were first fixed in paraformaldehyde and permeabilized with saponin as previously described. Staining for cytoplasmic antigens was carried out at room temperature (22° C.).

U-87 MG glioma cell line = test: Antibody staining and flow cytometry (intracellular gp100; surface MHC Class I); details: U-87 MG; 3 days; IFN-beta 5000 Units/ml, 17-AEP 0.5, PU-H71 0.3, CCT018159 5.0 μg/ml
Method: as §1, §2, §3

[1] = tested on: U-118 MG glioma cell line; test: Antibody staining and flow cytometry (intracellular gp100; surface MHC Class I/II); details: U-118 MG; 3 days; IFN-beta 5000 Units/ml, 17-AEP 1.0, PU-H71 0.3, CCT018159 10.0 μg/ml
Method: as §1, §2, §3, §4, §5

[2] = tested on: MU89 MART::EGFP cell line; test: Melan-A/MART-1 promoter-driven EGFP reporter, kinetics by flow cytometry; details: MU89 MART::EGFP (FIG. 11)
Method: FIG. 11 is a set of four graphs showing the kinetics of Melan-A/MART-1 increase. […] The same number of cells per well were plated in each well of a 24 well plate and drug was added on day zero. Each day cells were collected and assayed for that time point. Control untreated cells are shown for comparison. The data are from one representative experiment.
A kinetic analysis was performed to determine the effect of Hsp90 inhibition on Melan-A/MART-1 promoter activity over time. […] Reporter activity increases steadily for the first 72 hours of Hsp90 inhibition, and then plateaus. The need for continued presence of Hsp90 inhibitors in order for them to be effective (i.e. whether the drug can be removed after short exposure, or whether it must it be continually present) was assessed. […] To achieve full signal enhancement, it is desirable to retain the drug for at least 48 hours, after which the effect remains constant or slightly decreases.
The generation and application of EGFP reporter cells has been previously described. Briefly, a 1200 base pair human genomic DNA segment encompassing the Melan-A/MART-1 promoter was used to generate a construct driving expression of the EGFP reporter gene. Stable transfectants with this construct were generated in the low-antigen cell line A375 and the high-antigen line MM96L+ and MU89. The EGFP expression response patterns of these cells to IFN-beta and MAP kinase inhibitors recapitulates the antigen up-regulation of endogenous Melan-A/MART-1 induced by these agents.
as §3

A375 melanoma cell line = test: Antibody staining and flow cytometry (intracellular Melan-A/MART-1, gp100, TRP-2; surface MHC Class I)
Method: as §1, §2, §3, §4, §5

MUX melanoma cell line = test: as above
Method: as §1, §2, §3, §4, §5

[3] = MU89, 3 days, IFN-beta 5000 Units/ml, 17-AEP 1.0, PU-H71 0.3, CCT018159 10.0 μg/ml
[4] = MU89, 4 day IFN-β pre-treatment (5000 Units/ml), then 3 days with fresh IFN-β and the labelled HSP90 inhibitor (label IFN-β: no inhibitor), 17-AEP 1, PU-H71 0.3, CCT018159 10 mg/ml
[5] = MU89, 4 day IFN-β pre-treatment (5000 Units/ml), then 3 days without IFN-β with the labelled HSP90 inhibitor (label IFN-β: no inhibitor), 17-AEP 1, PU-H71 0.3, CCT018159 10 mg/ml
[6] = MU89, single agent for 3 days, no IFN-β pre-treatment, IFN-β 5000 Units/ml
[7] = MU89, three days, IFN-β 5000 Units/ml
[8] = 3 days, IFN-beta 5000 Units/ml, 17-AEP 0.5, PU-H71 0.15, CCT018159 2.5 μg/ml
[9] = 4 day IFN-β pre-treatment (5000 Units/ml), then 3 days with fresh IFN-β and the labelled HSP90 inhibitor (label IFN-β: no inhibitor), 17-AEP 0.5, PU-H71 0.15, CCT018159 2.5
[10] = 4 day IFN-β pre-treatment (5000 Units/ml), then 3 days without IFN-β with the labelled HSP90 inhibitor (label IFN-β: no inhibitor), 17-AEP 0.5, PU-H71 0.15, CCT018159 2.5
[11] = single agent for 3 days, no IFN-β pre-treatment, IFN-β 5000 Units/ml, 17-AEP 0.5, PU-H71 […], CCT018159 2.5
[12] = three days, IFN-β 5000 Units/ml, 17-AEP 0.5, PU-H71 […], CCT018159 2.5
[13] = MUX, 3 days, IFN-beta 5000 Units/ml, 17-AEP 1.0, PU-H71 0.3, CCT018159 10.0 μg/ml
[14] = MUX, 4 day IFN-β pre-treatment (5000 Units/ml), then 3 days with fresh IFN-β and the labelled HSP90 inhibitor (label IFN-β: no inhibitor), 17-AEP 1, PU-H71 0.3, CCT018159 10 mg/ml
[15] = MUX, 4 day IFN-β pre-treatment (5000 Units/ml), then 3 days without IFN-β with the labelled HSP90 inhibitor (label IFN-β: no inhibitor), 17-AEP 1, PU-H71 0.3, CCT018159 10 mg/ml
[16] = MUX, single agent for 3 days, no IFN-β pre-treatment, IFN-β 5000 Units/ml, 17-AEP 1 μg/ml, PU-H71 0.3 μg/ml, CCT018159 10 μg/ml
[17] = MU89 (BRAF M/WT, NRAS WT), 3 days, 17-AEP 0.50, CCT018159 10.00, PU-H71 0.30 μg/ml
[18] = MUX (BRAF M/M, NRAS WT), 3 days, 17-AEP 0.50, CCT018159 5.00, PU-H71 0.30 μg/ml

CO[C@H]1/C=C\C=C(/C)C(=O)NC2=CC(=O)C(NCCN3CCCC3)=C(C[C@@H](C)C[C@H](OC)[C@H](O)[C@@H](C)/C=C(\C)[C@@H]1OC(N)=O)C2=O [17-AEP]
Class I, geometric mean of surface staining (W6/32) (MU89 melanoma cell line; [3]): 54
MART-1, geometric mean of intracellular staining (MU89 melanoma cell line; [3]): 130
TRP-2, geometric mean of intracellular staining (MU89 melanoma cell line; [3]): 144
gp100, geometric mean of intracellular staining (MU89 melanoma cell line; [3]): 342
MHC Class I, geometric mean of surface staining (W6/32) (MU89 melanoma cell line; [4]): 227
MHC Class I, geometric mean of surface staining (W6/32) (MU89 melanoma cell line; [5]): 86
MHC Class I, geometric mean of surface staining (W6/32) (MU89 melanoma cell line; [6]): 84
MHC Class I, geometric mean of surface staining (W6/32) (MU89 melanoma cell line; [7]): 54
Class I, geometric mean of surface staining (W6/32) (U-87 MG glioma cell line): 66
gp100, geometric mean of intracellular staining (U-87 MG glioma cell line): 51
Class I, geometric mean of surface staining (W6/32) [1]: 117
gp100, geometric mean of intracellular staining [1]: 61
Time at which the fluorescent reporter signal is significantly enhanced (as early as) [2]: 2 days
Class I, geometric mean of surface staining (W6/32) (A375 melanoma cell line; [8]): 67
MART-1, geometric mean of intracellular staining (A375 melanoma cell line; [8]): 11
TRP-2, geometric mean of intracellular staining (A375 melanoma cell line; [8]): 31
gp100, geometric mean of intracellular staining (A375 melanoma cell line; [8]): 22
MHC Class I, geometric mean of surface staining (W6/32) (A375 melanoma cell line; [9]): 144
MHC Class I, geometric mean of surface staining (W6/32) (A375 melanoma cell line; [10]): 90
MHC Class I, geometric mean of surface staining (W6/32) (A375 melanoma cell line; [11]): 109
MHC Class I, geometric mean of surface staining (W6/32) (A375 melanoma cell line; [12]): 67
Class I, geometric mean of surface staining (W6/32) (MUX melanoma cell line; [13]): 219
MART-1, geometric mean of intracellular staining (MUX melanoma cell line; [13]): 19
TRP-2, geometric mean of intracellular staining (MUX melanoma cell line; [13]): 48
gp100, geometric mean of intracellular staining (MUX melanoma cell line; [13]): 34
MHC Class I, geometric mean of surface staining (W6/32) (MUX melanoma cell line; [14]): 615
MHC Class I, geometric mean of surface staining (W6/32) (MUX melanoma cell line; [15]): 496
MHC Class I, geometric mean of surface staining (W6/32) (MUX melanoma cell line; [16]): 286

CCc1cc(-c2n[nH]c(C)c2-c2ccc3c(c2)OCCO3)c(O)cc1O [CCT018159]
HMB45, level of induction relative to untreated control cells (MU89 melanoma cell line; [17]): 3.92
MART-1, level of induction relative to untreated control cells (MU89 melanoma cell line; [17]): 3.22
Class I, fold increase relative to untreated control (MU89 melanoma cell line; [3]): 4.2 fold
Class I, geometric mean of surface staining (W6/32) (MU89 melanoma cell line; [3]): 75
MART-1, fold increase relative to untreated control (MU89 melanoma cell line; [3]): 3.0 fold
MART-1, geometric mean of intracellular staining (MU89 melanoma cell line; [3]): 99
TRP-2, fold increase relative to untreated control (MU89 melanoma cell line; [3]): 2.7 fold
TRP-2, geometric mean of intracellular staining (MU89 melanoma cell line; [3]): 252
gp100, fold increase relative to untreated control (MU89 melanoma cell line; [3]): 2.2 fold
gp100, geometric mean of intracellular staining (MU89 melanoma cell line; [3]): 273
MHC Class I, geometric mean of surface staining (W6/32) (MU89 melanoma cell line; [4]): 281
MHC Class I, geometric mean of surface staining (W6/32) (MU89 melanoma cell line; [5]): 232
MHC Class I, geometric mean of surface staining (W6/32) (MU89 melanoma cell line; [6]): 73
MHC Class I, geometric mean of surface staining (W6/32) (MU89 melanoma cell line; [7]): 75
Class I, fold increase relative to untreated control (U-87 MG glioma cell line): 1.0 fold
Class I, geometric mean of surface staining (W6/32) (U-87 MG glioma cell line): 28
gp100, fold increase relative to untreated control (U-87 MG glioma cell line): 2.5 fold
gp100, geometric mean of intracellular staining (U-87 MG glioma cell line): 71
Class I, fold increase relative to untreated control [1]: 2.0 fold
Class I, geometric mean of surface staining (W6/32) [1]: 101
gp100, fold increase relative to untreated control [1]: 1.4 fold
gp100, geometric mean of intracellular staining [1]: 83
Time at which the fluorescent reporter signal is significantly enhanced (as early as) [2]: 2 days
Class I, fold increase relative to untreated control (A375 melanoma cell line; [8]): 1.9 fold
Class I, geometric mean of surface staining (W6/32) (A375 melanoma cell line; [8]): 70
MART-1, fold increase relative to untreated control (A375 melanoma cell line; [8]): 2.2 fold
MART-1, geometric mean of intracellular staining (A375 melanoma cell line; [8]): 13
TRP-2, fold increase relative to untreated control (A375 melanoma cell line; [8]): 2.3 fold
TRP-2, geometric mean of intracellular staining (A375 melanoma cell line; [8]): 37
gp100, fold increase relative to untreated control (A375 melanoma cell line; [8]): 2.1 fold
gp100, geometric mean of intracellular staining (A375 melanoma cell line; [8]): 32
MHC Class I, geometric mean of surface staining (W6/32) (A375 melanoma cell line; [9]): 181
MHC Class I, geometric mean of surface staining (W6/32) (A375 melanoma cell line; [10]): 139
MHC Class I, geometric mean of surface staining (W6/32) (A375 melanoma cell line; [11]): 119
MHC Class I, geometric mean of surface staining (W6/32) (A375 melanoma cell line; [12]): 70
HMB45, level of induction relative to untreated control cells (MUX melanoma cell line; [18]): 1.89
MART-1, level of induction relative to untreated control cells (MUX melanoma cell line; [18]): 1.64
Class I, fold increase relative to untreated control (MUX melanoma cell line; [13]): 1.7 fold
Class I, geometric mean of surface staining (W6/32) (MUX melanoma cell line; [13]): 174
MART-1, fold increase relative to untreated control (MUX melanoma cell line; [13]): 1.7 fold
MART-1, geometric mean of intracellular staining (MUX melanoma cell line; [13]): 22
TRP-2, fold increase relative to untreated control (MUX melanoma cell line; [13]): 1.0 fold
TRP-2, geometric mean of intracellular staining (MUX melanoma cell line; [13]): 40
gp100, fold increase relative to untreated control (MUX melanoma cell line; [13]): 1.5 fold
gp100, geometric mean of intracellular staining (MUX melanoma cell line; [13]): 40
MHC Class I, geometric mean of surface staining (W6/32) (MUX melanoma cell line; [14]): 599
MHC Class I, geometric mean of surface staining (W6/32) (MUX melanoma cell line; [15]): 397
MHC Class I, geometric mean of surface staining (W6/32) (MUX melanoma cell line; [16]): 265
MHC Class I, geometric mean of surface staining (W6/32) (MUX melanoma cell line; MUX, three days, IFN-β 5000 Units/ml, 17-AEP 1 μg/ml, PU-H71 0.3 μg/ml, CCT018159 10 μg/ml): 174
